# Source: patent publication US20150045409A1, “AMIDE COMPOUND AND USE THEREOF FOR PEST CONTROL” (SUMITOMO CHEMICAL COMPANY, LIMITED, priority 2012, published 2015)
# How the values were obtained:
# Type in all cases: in vivo
# [1] = system: last instar larvae of common house mosquitoes (Culex pipiens pallens); test: Larvicidal test on common house mosquito larvae in water (Test Examples 9, 10); settings: active ingredient 3.5 ppm in water
# Description: Each of the formulations of Compounds (26) and (45) of the present invention obtained in Formulation Example 15 was diluted with water, so as to have a concentration of active ingredient of 500 ppm, to prepare a test drug solution.
# 0.7 ml of the test drug solution was added to 100 ml of ion-exchanged water (a concentration of active ingredient of 3.5 ppm).
# (§1) Each of the formulations of Compounds (5), (6), (24), (27), (29), (30), (33), (38) and (47) of the present invention obtained in Formulation Example 15 was diluted with water, so as to have a concentration of active ingredient of 500 ppm, to prepare a test drug solution.
# [2] = system: German cockroaches (Blattella germanica); test: Spray knockdown test on German cockroaches (Test Examples 1, 2); settings: 5 min, 1.5 ml sprayed, counted after 5 minutes, read-out: knockdown rate; for pest or weed control at 2 %: active ingredient 2.0% w/v oil solution; for pest or weed control at 0.5 %: active ingredient 0.5% w/v oil solution
# Description: The formulations of Compounds (7), (46), (48) and (54) of the present invention obtained in Formulation Example 7 were diluted with a mixture solution of isopropyl alcohol/deodorized kerosene of 1/9, so as to have a concentration of active ingredient of 2.0% w/v, to prepare a test drug solution.
# Ten German cockroaches (Blattella germanica) (5 males and 5 females) were released in a test container (8.75 cm in diameter, 7.5 cm in height, and the bottom made of 16 mesh metallic wire) with the inner wall on which butter was applied, and the container was placed on the bottom of a test chamber (bottom: 46 cm×46 cm, height: 70 cm). From a height of 60 cm above the upper surface of the container, 1.5 ml of the test drug solution was sprayed using a spray gun (a spraying pressure of 0.42 kg/cm^2). Thirty seconds after spraying, the container was taken out from the test chamber, and after 5 minutes, the number of knockdown insects was counted to obtain a knockdown rate. The knockdown rate was calculated by the following equation.
# (§2) Knockdown Rate(%)=(Number of Knockdown Insects/Number of Tested Insects)×100
# The formulations of Compounds (1), (2), (4), (6) to (8), (10) to (14), (17) to (20), (23) to (25), (28), (31) to (33), (39) to (42), (44) and (50) to (53) of the present invention obtained in Formulation Example 7 were diluted with a mixture solution with a ratio of isopropyl alcohol/deodorized kerosene of 1/9, so as to have a concentration of active ingredient of 0.5% w/v, to prepare a test drug solution.
# The test was performed in the same manner as in Test Example 1.
# adult houseflies = test: Spray knockdown test on adult houseflies (Test Examples 3, 4); settings: Musca domestica, 10 min, 0.5 ml sprayed, counted after 10 minutes, read-out: knockdown rate; for pest or weed control at 2 %: active ingredient 2.0% w/v oil solution; for pest or weed control at 0.5 %: active ingredient 0.5% w/v oil solution
# Description: The formulations of Compounds (7), (46) and (48) of the present invention obtained in Formulation Example 7 were diluted with a mixture solution with a ratio of isopropyl alcohol/deodorized kerosene of 1/9, so as to have a concentration of active ingredient of 2.0% w/v, to prepare a test drug solution.
# Ten adult houseflies (5 males and 5 females) were released in a polyethylene cup (a bottom diameter of 10.6 cm) which was then capped with 16-mesh nylon gauze. The polyethylene cup was placed on the bottom of a test chamber (bottom: 46 cm×46 cm, height: 70 cm). From a height of 30 cm above the upper surface of the polyethylene cup, 0.5 ml of the test drug solution was sprayed using a spray gun (a spraying pressure of 0.9 kg/cm^2). Immediately after spraying, the cup was taken out from the test container, and after 10 minutes, the number of knockdown insects was counted to obtain a knockdown rate. The knockdown rate was calculated by the following equation.
# as §2
# The formulations of Compounds (4), (6), (8), (17) to (19), (28), (29), (33), (40) to (42) and (51) to (53) of the present invention obtained in Formulation Example 7 were diluted with a mixture solution with a ratio of isopropyl alcohol/deodorized kerosene of 1/9, so as to have a concentration of active ingredient of 0.5% w/v, to prepare a test drug solution. The test was performed in the same manner as in Test Example 3.
# [3] = system: adult houseflies (Musca domestica); test: Filter paper/sucrose bait knockdown test on adult houseflies (Test Example 7); settings: 0.7 ml on filter paper with sucrose bait, after 2 hours, read-out: knockdown rate
# Description: as §1, with “(2), (4) to” for “(5),”, “(8), (9), (18), (21) to (23),” for “(24),”, “(32) to (36), (38), (41), (42)” for “(30), (33), (38)”, “(53)” for “(47)”
# (§3) On the bottom of a polyethylene cup with a diameter of 5.5 cm, a filter paper of the same size was laid down, and 0.7 ml of the test drug solution was dropped onto the filter paper, then 30 mg of sucrose was uniformly put as bait. Ten adult houseflies (Musca domestica) were released in the polyethylene cup which was then capped. After 2 hours, the number of knockdown insects was counted to obtain a knockdown rate. The knockdown rate was calculated by the following equation.
# as §2
# [4] = system: adult houseflies (Musca domestica); test: Filter paper/sucrose bait mortality test on adult houseflies (Test Example 8); settings: 0.7 ml on filter paper with sucrose bait, after 24 hours
# Description: as §1, with “(2) to” for “(5),”, “(8), (12), (15) to (18),” for “(24),”, “(29),” for “(29), (30),”, “(37) to (39), (41), (42)” for “(38)”, “(45)” for “(47)”
# as §3, with “capped.” for “capped. After 2 hours, the number of knockdown insects was counted to obtain a knockdown rate. The knockdown rate was calculated by the following equation.”
smiles,measurement,setting,value
"CCCCC/C=C/C(=O)NCC1CCOCC1 [Compound (24), (E)-N-(tetrahydropyran-4-ylmethyl)-2-octenamide]",mortality at 3.5 ppm,"[1]; 192 h, after 8 days",≥ 95%
"CCCCCC/C=C/C(=O)NCC1(CC)COCOC1 [Compound (48), (E)-N-(5-ethyl-1,3-dioxan-5-ylmethyl)-2-nonenamide]",pest or weed control at 2 %,[2],≥ 80%
same,pest or weed control at 2 %,adult houseflies,≥ 80%
"CCCCCC/C=C/C(=O)NCC1COCCO1 (stereo not drawn) [Compound (47), (E)-N-(1,4-dioxan-2-ylmethyl)-2-nonenamide]",mortality at 3.5 ppm,"[1]; 192 h, after 8 days",≥ 95%
"CCCCCC/C(C)=C(/F)C(=O)NCC1CCOCC1 [Compound (30), (E)-N-(tetrahydropyran-4-ylmethyl)-2-fluoro-3-methyl-2-nonenamide]",mortality at 3.5 ppm,"[1]; 192 h, after 8 days",≥ 95%
"CCCCC1CC1/C=C/C(=O)NCC1CCOCC1 (stereo not drawn) [Compound (42), (E)-N-(tetrahydropyran-4-ylmethyl)-3-(trans-2′-butylcyclopropyl)-2-propenamide]",pest or weed control at 500 ppm,[3],100%
same,mortality at 500 ppm,[4],≥ 90%
"CCCCCC/C=C(\F)C(=O)NCC1CCOC1 (stereo not drawn) [Compound (7), (Z)—N-(tetrahydrofuran-3-ylmethyl)-2-fluoro-2-nonenamide]",pest or weed control at 2 %,[2],≥ 80%
same,pest or weed control at 2 %,adult houseflies,≥ 80%
"CCCCCCC/C=C/C(=O)NCC1CCOC1 (stereo not drawn) [Compound (4), (E)-N-(tetrahydrofuran-3-ylmethyl)-2-decenamide]",pest or weed control at 0.5 %,[2],≥ 70%
same,pest or weed control at 0.5 %,adult houseflies,≥ 80%
"CCC1CC1CC/C=C/C(=O)NCC1CCOCC1 (stereo not drawn) [Compound (44), (E)-N-(tetrahydropyran-4-ylmethyl)-5-(trans-2′-ethylcyclopropyl)-2-pentenamide]",pest or weed control at 0.5 %,[2],≥ 70%
"CCCCCC/C(C)=C/C(=O)NCC1CCOC1 (stereo not drawn) [Compound (6), (E)-N-(tetrahydrofuran-3-ylmethyl)-3-methyl-2-nonenamide]",pest or weed control at 0.5 %,adult houseflies,≥ 80%
same,mortality at 3.5 ppm,"[1]; 192 h, after 8 days",≥ 95%
"CCCC1CC1/C=C/C(=O)NCC1CCOC1 (stereo not drawn) [Compound (18), (E)-N-(tetrahydrofuran-3-ylmethyl)-3-(trans-2′-propylcyclopropyl)-2-propenamide]",pest or weed control at 500 ppm,[3],100%
"CCCCCC/C=C/C(=O)NCC1CCCCO1 (stereo not drawn) [Compound (46), (E)-N-(tetrahydropyran-2-ylmethyl)-2-nonenamide]",pest or weed control at 2 %,[2],≥ 80%
same,pest or weed control at 2 %,adult houseflies,≥ 80%
"CCCCCC/C(C)=C/C(=O)NCC1CCOCC1 [Compound (28), (E)-N-(tetrahydropyran-4-ylmethyl)-3-methyl-2-nonenamide]",pest or weed control at 0.5 %,[2],≥ 70%
same,pest or weed control at 0.5 %,adult houseflies,≥ 80%
"CCCCCCC/C=C/C(=O)NCC1CCOCC1 [Compound (26), (E)-N-(tetrahydropyran-4-ylmethyl)-2-decenamide]",mortality at 3.5 ppm,[1]; after a day,≥ 95%
"CCCCCC/C(C)=C(\F)C(=O)NCC1CCOCC1 [Compound (29), (Z)—N-(tetrahydropyran-4-ylmethyl)-2-fluoro-3-methyl-2-nonenamide]",pest or weed control at 0.5 %,adult houseflies,≥ 80%
same,pest or weed control at 500 ppm,[3],100%
same,mortality at 500 ppm,[4],≥ 90%
same,mortality at 3.5 ppm,"[1]; 192 h, after 8 days",≥ 95%
"CC1CC1C1CC1/C=C/C(=O)NCC1CCOCC1 (stereo not drawn) [Compound (53), (E)-N-(tetrahydropyran-4-ylmethyl)-3-(trans-2′-(trans-2″-methylcyclopropyl)cyclopropyl)-2-propenamide]",pest or weed control at 500 ppm,[3],100%
"CCCCCC/C(C)=C(/F)C(=O)NCC1CCOC1 (stereo not drawn) [Compound (9), (E)-N-(tetrahydrofuran-3-ylmethyl)-2-fluoro-3-methyl-2-nonenamide]",pest or weed control at 500 ppm,[3],100%
"C=CCCCCC/C=C/C(=O)NCC1CCOC1 (stereo not drawn) [Compound (12), (E)-N-(tetrahydrofuran-3-ylmethyl)-deca-2,9-dienamide]",mortality at 500 ppm,[4],≥ 90%
"CCCCCCCC/C=C/C(=O)NCC1CCOC1 (stereo not drawn) [Compound (5), (E)-N-(tetrahydrofuran-3-ylmethyl)-2-undecenamide]",mortality at 3.5 ppm,"[1]; 192 h, after 8 days",≥ 95%
"CCCCCCCC/C=C/C(=O)NCC1CCOCC1 [Compound (27), (E)-N-(tetrahydropyran-4-ylmethyl)-2-undecenamide]",pest or weed control at 500 ppm,[3],100%
same,mortality at 500 ppm,[4],≥ 90%
same,mortality at 3.5 ppm,"[1]; 192 h, after 8 days",≥ 95%
"C=CCCCCC/C=C/C(=O)NCC1CCOCC1 [Compound (33), (E)-N-(tetrahydropyran-4-ylmethyl)-deca-2,9-dienamide]",pest or weed control at 0.5 %,adult houseflies,≥ 80%
same,mortality at 500 ppm,[4],≥ 90%
same,mortality at 3.5 ppm,"[1]; 192 h, after 8 days",≥ 95%
"CCCC1CC1/C=C/C(=O)NCC1CCOCC1 (stereo not drawn) [Compound (41), (E)-N-(tetrahydropyran-4-ylmethyl)-3-(trans-2′-propylcyclopropyl)-2-propenamide]",pest or weed control at 500 ppm,[3],100%
same,mortality at 500 ppm,[4],≥ 90%
"CCCCCC/C(C)=C(\F)C(=O)NCC1CCOC1 (stereo not drawn) [Compound (8), (Z)—N-(tetrahydrofuran-3-ylmethyl)-2-fluoro-3-methyl-2-nonenamide]",pest or weed control at 0.5 %,adult houseflies,≥ 80%
same,pest or weed control at 500 ppm,[3],100%
same,mortality at 500 ppm,[4],≥ 90%
"O=C(/C=C/CCCCCl)NCC1CCOCC1 [Compound (54), (E)-N-(tetrahydropyran-4-ylmethyl)-7-chloro-2-heptenamide]",pest or weed control at 2 %,[2],≥ 80%
"C#CCCCC/C=C/C(=O)NCC1CCOCC1 [Compound (38), (E)-N-(tetrahydropyran-4-ylmethyl)-non-2-en-8-ynamide]",pest or weed control at 500 ppm,[3],100%
same,mortality at 3.5 ppm,"[1]; 192 h, after 8 days",≥ 95%
"CCCCCC/C=C/C(=O)NCC1CCOC1 (stereo not drawn) [Compound (2), (E)-N-(tetrahydrofuran-3-ylmethyl)-2-nonenamide]",pest or weed control at 0.5 %,[2],≥ 70%
same,pest or weed control at 500 ppm,[3],100%
"CCCCC/C=C/C(=O)NCC1CCOC1 (stereo not drawn) [Compound (1), (E)-N-(tetrahydrofuran-3-ylmethyl)-2-octenamide]",pest or weed control at 0.5 %,[2],≥ 70%
